From the supplement of paper PMC13380429

Legend:
[1] = tested on: U2OS; assay: cell viability relative to DMSO; higher = less toxic; conditions: 72 h
[2] = tested on: Vero E6; assay: as above; conditions: 72 h
[3] = tested on: HepG2; assay: as above; conditions: 72 h
[4] = tested on: Caco-2; assay: as above; conditions: 72 h
[5] = tested on: Calu-3; assay: as above; conditions: 72 h
[6] = tested on: A549-ACE2 infected with SARS-CoV-2; assay: morphology score (similarity to uninfected cells); higher = more like uninfected cells; conditions: 24 h
[7] = tested on: A549-ACE2 infected with SARS-CoV-2; assay: SARS-CoV-2 infection rate relative to DMSO; higher = more infection; conditions: 24 h
[8] = tested on: U2OS; assay: relative viability EC50 (midpoint between 100% and the lowest measured viability); higher = less toxic; conditions: 72 h
[9] = tested on: Vero E6; assay: as above; conditions: 72 h
[10] = tested on: HepG2; assay: as above; conditions: 72 h
[11] = tested on: Caco-2; assay: as above; conditions: 72 h
[12] = tested on: Calu-3; assay: as above; conditions: 72 h
[13] = tested on: A549-ACE2; assay: drug-induced phospholipidosis relative to tamoxifen; higher = more phospholipidosis
[14] = tested on: U2OS; assay: drug sensitivity score (DSS) for viability; higher = more toxic; extreme values may be limits of the assay; conditions: 72 h
[15] = tested on: Vero E6; assay: as above; conditions: 72 h
[16] = tested on: HepG2; assay: as above; conditions: 72 h
[17] = tested on: Caco-2; assay: as above; conditions: 72 h
[18] = tested on: Calu-3; assay: as above; conditions: 72 h
[19] = tested on: A549-ACE2 infected with SARS-CoV-2; assay: cell count relative to DMSO; higher = less toxic; conditions: 24 h
[20] = tested on: A549-ACE2; assay: phospholipidosis EC50; higher = less potent phospholipidosis inducer

CC(=O)O[C@@H]1C[C@H]2C(C)(C)C(=O)C=C[C@]2(C)[C@H]2CC[C@@]3(C)[C@H](c4ccoc4)OC(=O)[C@H]4O[C@]43[C@@]21C [gedunin]
Conditions | SARS-CoV-2 infection rate, [7] [%] | cell count, [19] [%] | cell viability, [1] [%] | cell viability, [2] [%] | cell viability, [3] [%] | cell viability, [4] [%] | cell viability, [5] [%] | morphology score, [6]
1 nM | – | – | 99.5 | 101 | 105 | 97.5 | 102 | –
10 nM | – | – | 100 | 102 | 93.8 | 94.6 | 103 | –
100 nM | – | – | 95.7 | 102 | 103 | 102 | 115 | –
0.3 µM | 107 | 101 | – | – | – | – | – | 0.03
1000 nM | – | – | 100 | 94.3 | 94.9 | 103 | 97.2 | –
3 µM | 95 | 96 | – | – | – | – | – | 0.18
10000 nM | – | – | 95.4 | 86.6 | 80.6 | 86.8 | 102 | –
10 µM | 98 | 108 | – | – | – | – | – | 0.06
30 µM | 85 | 103 | – | – | – | – | – | 0.52

Conditions | drug sensitivity score | relative viability EC50 [µM]
[8] | – | > 10
[9] | – | > 10
[10] | – | > 10
[11] | – | > 10
[12] | – | > 10
[14] | 0 | –
[15] | 0.5 | –
[16] | 1.2 | –
[17] | 0.1 | –
[18] | 0 | –

drug-induced phospholipidosis [%], [13]
Conditions | 0.3 µM | 0.833333 µM | 3.33333 µM | 6.66667 µM | 10 µM | 30 µM
24 h | 2.13 | 1.52 | 8.1 | 16.6 | 23.3 | 40.1
48 h | 7.32 | 5.06 | 10.1 | 18 | 24.2 | 37.8
72 h | 7.41 | 2.35 | 7.47 | 17 | 21.7 | 40.6

COCC(=O)O[C@]1(CCN(C)CCCc2nc3ccccc3[nH]2)CCc2cc(F)ccc2[C@@H]1C(C)C [mibefradil]
Conditions | SARS-CoV-2 infection rate [%] | cell count [%] | cell viability [%] | morphology score | phospholipidosis EC50 [µM]
[1], 1 nM | – | – | 103 | – | –
[1], 10 nM | – | – | 97.9 | – | –
[1], 100 nM | – | – | 98.7 | – | –
[1], 1000 nM | – | – | 90.9 | – | –
[1], 10000 nM | – | – | 65.6 | – | –
[2], 1 nM | – | – | 94.7 | – | –
[2], 10 nM | – | – | 98.8 | – | –
[2], 100 nM | – | – | 92.9 | – | –
[2], 1000 nM | – | – | 91.4 | – | –
[2], 10000 nM | – | – | 89 | – | –
[3], 1 nM | – | – | 99 | – | –
[3], 10 nM | – | – | 97.7 | – | –
[3], 100 nM | – | – | 88.2 | – | –
[3], 1000 nM | – | – | 98.3 | – | –
[3], 10000 nM | – | – | 50.3 | – | –
[4], 1 nM | – | – | 101 | – | –
[4], 10 nM | – | – | 90.3 | – | –
[4], 100 nM | – | – | 101 | – | –
[4], 1000 nM | – | – | 87.4 | – | –
[4], 10000 nM | – | – | 45.8 | – | –
[5], 1 nM | – | – | 99.8 | – | –
[5], 10 nM | – | – | 105 | – | –
[5], 100 nM | – | – | 109 | – | –
[5], 1000 nM | – | – | 101 | – | –
[5], 10000 nM | – | – | 7.2 | – | –
[6], 0.3 µM | – | – | – | -0.1 | –
[6], 3 µM | – | – | – | 0.85 | –
[6], 10 µM | – | – | – | 0.71 | –
[6], 30 µM | – | – | – | -0.08 | –
[7], 0.3 µM | 102 | – | – | – | –
[7], 3 µM | 32 | – | – | – | –
[7], 10 µM | 9 | – | – | – | –
[7], 30 µM | 84 | – | – | – | –
[19], 0.3 µM | – | 100 | – | – | –
[19], 3 µM | – | 125 | – | – | –
[19], 10 µM | – | 119 | – | – | –
[19], 30 µM | – | 12 | – | – | –
[20], 24 h | – | – | – | – | 2.94
[20], 48 h | – | – | – | – | 4.35
[20], 72 h | – | – | – | – | 7.83

Conditions | drug sensitivity score | relative viability EC50 [µM]
[9] | – | > 10
[11] | – | 1.61
[12] | – | 3.24
[14] | 3 | –
[15] | 0 | –
[16] | 2.8 | –
[17] | 4.9 | –
[18] | 5.1 | –

drug-induced phospholipidosis [%], [13]
Conditions | 0.3 µM | 0.833333 µM | 3.33333 µM | 6.66667 µM | 10 µM | 30 µM
24 h | -2.56 | 5.28 | 65.2 | 87.9 | 115 | 45.3
48 h | 0.45 | 7.22 | 63.5 | 96.7 | 118 | –
72 h | 4.04 | 7.42 | 45.4 | 91.8 | 122 | –

COC[C@H](NC(=O)c1cnc(C)s1)C(=O)N[C@@H](COC)C(=O)N[C@@H](Cc1ccccc1)C(=O)[C@@]1(C)CO1 [oprozomib]
Conditions | SARS-CoV-2 infection rate, [7] [%] | cell count, [19] [%] | cell viability, [1] [%] | cell viability, [2] [%] | cell viability, [3] [%] | cell viability, [4] [%] | cell viability, [5] [%] | morphology score, [6]
1 nM | – | – | 103 | 106 | 114 | 103 | 92.4 | –
10 nM | – | – | 93.8 | 103 | 99.3 | 94.8 | 102 | –
100 nM | – | – | 53.9 | 72.4 | 27.5 | 18.9 | 25.4 | –
0.1 µM | 76 | 87 | – | – | – | – | – | 0.41
0.3 µM | 95 | 83 | – | – | – | – | – | 0.31
1000 nM | – | – | 0.2 | 16.3 | 4.6 | 8.5 | 4.2 | –
1 µM | 64 | 74 | – | – | – | – | – | 0.24
3 µM | 33 | 59 | – | – | – | – | – | 0.24
10000 nM | – | – | -0.3 | 4.2 | -0.1 | 5.5 | 4.5 | –

Conditions | drug sensitivity score | relative viability EC50 [µM]
[8] | – | 0.109
[9] | – | 0.209
[10] | – | 0.0661
[11] | – | 0.0409
[12] | – | 0.0607
[14] | 23.3 | –
[15] | 18.7 | –
[16] | 26.4 | –
[17] | 27.4 | –
[18] | 25.9 | –

[13], 24 h
Conditions | drug-induced phospholipidosis [%]
0.3 µM | -19.8
0.833333 µM | -14.9
3.33333 µM | -36.6

C[C@@H]1CN(CCCn2c3ccccc3c3ccccc32)C[C@H](C)N1 [rimcazole]
Conditions | SARS-CoV-2 infection rate [%] | cell count [%] | cell viability [%] | morphology score | phospholipidosis EC50 [µM]
[1], 1 nM | – | – | 100 | – | –
[1], 10 nM | – | – | 98.1 | – | –
[1], 100 nM | – | – | 105 | – | –
[1], 1000 nM | – | – | 96.8 | – | –
[1], 10000 nM | – | – | 96.4 | – | –
[2], 1 nM | – | – | 97.9 | – | –
[2], 10 nM | – | – | 97.9 | – | –
[2], 100 nM | – | – | 94.4 | – | –
[2], 1000 nM | – | – | 98.2 | – | –
[2], 10000 nM | – | – | 81.7 | – | –
[3], 1 nM | – | – | 106 | – | –
[3], 10 nM | – | – | 105 | – | –
[3], 100 nM | – | – | 98 | – | –
[3], 1000 nM | – | – | 106 | – | –
[3], 10000 nM | – | – | 76.4 | – | –
[4], 1 nM | – | – | 96 | – | –
[4], 10 nM | – | – | 99.5 | – | –
[4], 100 nM | – | – | 93.4 | – | –
[4], 1000 nM | – | – | 90.8 | – | –
[4], 10000 nM | – | – | 87 | – | –
[5], 1 nM | – | – | 103 | – | –
[5], 10 nM | – | – | 88.6 | – | –
[5], 100 nM | – | – | 100 | – | –
[5], 1000 nM | – | – | 90.2 | – | –
[5], 10000 nM | – | – | 60.1 | – | –
[6], 0.3 µM | – | – | – | 0.08 | –
[6], 3 µM | – | – | – | 0.76 | –
[6], 10 µM | – | – | – | 0.81 | –
[6], 30 µM | – | – | – | 0.11 | –
[7], 0.3 µM | 104 | – | – | – | –
[7], 3 µM | 43 | – | – | – | –
[7], 10 µM | 13 | – | – | – | –
[7], 30 µM | 41 | – | – | – | –
[19], 0.3 µM | – | 108 | – | – | –
[19], 3 µM | – | 122 | – | – | –
[19], 10 µM | – | 117 | – | – | –
[19], 30 µM | – | 101 | – | – | –
[20], 24 h | – | – | – | – | 2.9
[20], 48 h | – | – | – | – | 5.12
[20], 72 h | – | – | – | – | 5.72

Conditions | drug sensitivity score | relative viability EC50 [µM]
[8] | – | > 10
[9] | – | > 10
[10] | – | > 10
[11] | – | > 10
[14] | 0 | –
[15] | 0.7 | –
[16] | 0.6 | –
[17] | 0.2 | –
[18] | 3.5 | –

drug-induced phospholipidosis [%], [13]
Conditions | 0.3 µM | 0.833333 µM | 3.33333 µM | 6.66667 µM | 10 µM | 30 µM
24 h | 4.49 | 10.3 | 68.5 | 99.3 | 102 | 118
48 h | 7.19 | 8.94 | 52.5 | 90.8 | 105 | 135
72 h | 8.99 | 8.76 | 45.8 | 87 | 106 | 137
